Laboratory results: PubChem BioAssay AID652102 (NMMLSC, 2013)

Molecular target: Botulinum neurotoxin type A (Clostridium botulinum (strain Hall / ATCC 3502 / NCTC 13319 / Type A)) (UniProt P0DPI1)
Assay: BoNT/A light chain protease inhibitors, confirmation, biochemical, FRET, full-length substrates, powder set 1 (AID 652102)
Details: BoNT/A LC protease, FRET full-length substrate cleavage

Sequence of Botulinum neurotoxin type A (Clostridium botulinum (strain Hall / ATCC 3502 / NCTC 13319 / Type A)) (P0DPI1 whole entry, looked up): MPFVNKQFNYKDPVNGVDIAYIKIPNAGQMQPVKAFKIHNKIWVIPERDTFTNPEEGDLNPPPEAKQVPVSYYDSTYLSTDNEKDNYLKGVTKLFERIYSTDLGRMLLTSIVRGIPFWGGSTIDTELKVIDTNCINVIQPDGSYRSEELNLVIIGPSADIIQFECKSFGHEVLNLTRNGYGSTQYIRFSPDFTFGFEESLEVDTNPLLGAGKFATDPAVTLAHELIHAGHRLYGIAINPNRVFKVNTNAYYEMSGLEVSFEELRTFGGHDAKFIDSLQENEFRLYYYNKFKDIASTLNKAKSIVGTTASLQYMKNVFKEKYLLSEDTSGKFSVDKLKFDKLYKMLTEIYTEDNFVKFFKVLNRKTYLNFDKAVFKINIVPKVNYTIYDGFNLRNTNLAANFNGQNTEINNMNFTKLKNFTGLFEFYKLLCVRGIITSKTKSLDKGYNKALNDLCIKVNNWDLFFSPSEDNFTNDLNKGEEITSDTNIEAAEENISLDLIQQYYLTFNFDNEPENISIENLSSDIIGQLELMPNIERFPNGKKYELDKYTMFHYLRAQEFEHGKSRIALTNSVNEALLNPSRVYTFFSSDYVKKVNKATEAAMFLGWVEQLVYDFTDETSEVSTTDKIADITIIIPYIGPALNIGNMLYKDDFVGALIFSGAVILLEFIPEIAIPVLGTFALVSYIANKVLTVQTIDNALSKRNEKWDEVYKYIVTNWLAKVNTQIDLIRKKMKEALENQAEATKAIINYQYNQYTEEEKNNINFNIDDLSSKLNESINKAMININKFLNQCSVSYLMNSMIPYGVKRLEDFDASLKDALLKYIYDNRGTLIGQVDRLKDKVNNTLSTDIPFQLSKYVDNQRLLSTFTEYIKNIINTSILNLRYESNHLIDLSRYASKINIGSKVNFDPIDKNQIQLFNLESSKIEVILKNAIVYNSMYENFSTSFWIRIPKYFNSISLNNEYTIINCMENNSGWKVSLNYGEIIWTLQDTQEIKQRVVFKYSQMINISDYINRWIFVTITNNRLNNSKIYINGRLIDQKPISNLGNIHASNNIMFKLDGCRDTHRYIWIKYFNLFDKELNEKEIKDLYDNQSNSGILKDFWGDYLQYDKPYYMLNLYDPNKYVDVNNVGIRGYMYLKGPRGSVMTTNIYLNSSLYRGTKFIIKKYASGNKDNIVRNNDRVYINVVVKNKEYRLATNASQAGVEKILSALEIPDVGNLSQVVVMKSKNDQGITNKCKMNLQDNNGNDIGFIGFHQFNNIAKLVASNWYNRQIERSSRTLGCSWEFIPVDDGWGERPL

`c1ccc(-c2cn3nc(-c4ccccc4)c(-c4ccccc4)nc3n2)cc1` was tested, and the IC50 was 600 nM.
